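Compound exposure: 48 hours, 5 concentrations, 96-well plates. The concentration for 50% growth inhibition is given as GI50.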 Calls of active or inactive are those of the source. Rule as the data show it: active = GI50 up to about 1.1 µM and inactive = higher.
Tests used:
Assay in all cases: NCI-60 cell line screen, 48 h
SK-MEL-2 = system: SK-MEL-2
A549 = system: A549
HOP-92 = system: HOP-92
RPMI-8226 = system: RPMI-8226
HCT-15 = system: HCT-15
SF-268 = system: SF-268
NCI-H226 = system: NCI-H226
HCC 2998 = system: HCC 2998
ACHN = system: ACHN
UACC-62 = system: UACC-62
HCT-116 = system: HCT-116
CCRF-CEM = system: CCRF-CEM
SF-295 = system: SF-295
LOX IMVI = system: LOX IMVI
UACC-257 = system: UACC-257
KM-20L2 = system: KM-20L2
SW-620 = system: SW-620
T47D = system: T47D
MDA-N = system: MDA-N
NCI/ADR-RES = system: NCI/ADR-RES

SMILES	GI50 (SK-MEL-2)	GI50 (A549)	GI50 (HOP-92)	GI50 (RPMI-8226)	GI50 (HCT-15) [µM]	GI50 (SF-268)	GI50 (NCI-H226)	GI50 (HCC 2998)	GI50 (ACHN)	GI50 (UACC-62)	GI50 (HCT-116)	GI50 (CCRF-CEM)	GI50 (SF-295)	GI50 (LOX IMVI)	GI50 (UACC-257)	GI50 (KM-20L2)	GI50 (SW-620)	GI50 (T47D)	GI50 (MDA-N)	GI50 (NCI/ADR-RES)
O=C1c2ccccc2C(=O)C1C(c1ccc([N+](=O)[O-])cc1)C1C(=O)c2ccccc2C1=O	91 µM (inactive)	> 100 µM (inactive)	36.2 µM (inactive)	54.5 µM (inactive)	63.1	24.9 µM (inactive)	59.7 µM (inactive)	> 100 µM (inactive)	> 100 µM (inactive)	32.6 µM (inactive)	24.3 µM (inactive)	32.4 µM (inactive)	> 100 µM (inactive)	18 µM (inactive)	33.7 µM (inactive)	> 100 µM (inactive)	17.9 µM (inactive)			
O=c1nc(NC(c2ccccc2)(c2ccccc2)c2ccccc2)ccn1CCNCCn1ccc(NC(c2ccccc2)(c2ccccc2)c2ccccc2)nc1=O	2.66 µM (inactive)	26.2 µM (inactive)	5.45 µM (inactive)	2.55 µM (inactive)	> 100	4.84 µM (inactive)	14.5 µM (inactive)	3.96 µM (inactive)	40.6 µM (inactive)	4.42 µM (inactive)	3.92 µM (inactive)	5.96 µM (inactive)	11.5 µM (inactive)	2.84 µM (inactive)	5.82 µM (inactive)	10 µM (inactive)	6.64 µM (inactive)			
CCOC(=O)CC[C@H](NC(=O)c1nc[nH]c1[N+](=O)[O-])C(=O)OCC	> 100 µM (inactive)	> 100 µM (inactive)	> 100 µM (inactive)	> 100 µM (inactive)	> 100	> 100 µM (inactive)	> 100 µM (inactive)	> 100 µM (inactive)	> 100 µM (inactive)	> 100 µM (inactive)	> 100 µM (inactive)	> 100 µM (inactive)	> 100 µM (inactive)	> 100 µM (inactive)	> 100 µM (inactive)	> 100 µM (inactive)				
CCCCCCCCCCCC(=O)OCC1OC(n2cc(F)c(=O)[nH]c2=O)C(N)C(OC(=O)CCCCCCCCCCC)C1O (centres undefined)	> 100 µM (inactive)	> 100 µM (inactive)	36.2 µM (inactive)	54.5 µM (inactive)	> 100	> 100 µM (inactive)		45.3 µM (inactive)	> 100 µM (inactive)	> 100 µM (inactive)	88.1 µM (inactive)	37.2 µM (inactive)	> 100 µM (inactive)	88.3 µM (inactive)	> 100 µM (inactive)	> 100 µM (inactive)	68.4 µM (inactive)			
O=C(CCc1nnc(S)[nH]1)Nc1ccccc1Cl	> 100 µM (inactive)	> 100 µM (inactive)	> 100 µM (inactive)	> 100 µM (inactive)	20.2	> 100 µM (inactive)	> 100 µM (inactive)	> 100 µM (inactive)	> 100 µM (inactive)	> 100 µM (inactive)	> 100 µM (inactive)	> 100 µM (inactive)	> 100 µM (inactive)	> 100 µM (inactive)	> 100 µM (inactive)	> 100 µM (inactive)	18.2 µM (inactive)			
COC(=O)c1nc(N)nc(O)c1-c1ccc(Cl)cc1	> 100 µM (inactive)	> 100 µM (inactive)	> 100 µM (inactive)	> 100 µM (inactive)	> 100	> 100 µM (inactive)	> 100 µM (inactive)	> 100 µM (inactive)	> 100 µM (inactive)	> 100 µM (inactive)	> 100 µM (inactive)	> 100 µM (inactive)	> 100 µM (inactive)	> 100 µM (inactive)	> 100 µM (inactive)	> 100 µM (inactive)	> 100 µM (inactive)			
COc1ccc(OC(=O)N2C/C(=C\c3ccccc3)C(=O)/C(=C/c3ccccc3)C2)cc1	11.6 µM (inactive)	15.2 µM (inactive)	19.1 µM (inactive)	0.0476 µM (active)	2.79	3.67 µM (inactive)	10.1 µM (inactive)	2.9 µM (inactive)	3.94 µM (inactive)	2.16 µM (inactive)	0.355 µM (active)	1.02 µM (active)	2.99 µM (inactive)	0.962 µM (active)	3.74 µM (inactive)	5.42 µM (inactive)	1.03 µM (active)	16 µM (inactive)	1.76 µM (inactive)	
CC1(C)Cc2nnsc2C2=C1C(=O)CCS2	> 100 µM (inactive)	> 100 µM (inactive)	32.7 µM (inactive)	> 100 µM (inactive)	> 100	> 100 µM (inactive)		> 100 µM (inactive)	> 100 µM (inactive)	> 100 µM (inactive)		> 100 µM (inactive)	> 100 µM (inactive)	> 100 µM (inactive)	> 100 µM (inactive)	> 100 µM (inactive)	> 100 µM (inactive)			
CCC(/C(=N/NC(=O)C[N+](C)(C)C)c1ccccc1)C1OC(=O)c2ccccc21 (centres undefined)		> 100 µM (inactive)	> 100 µM (inactive)	> 100 µM (inactive)	> 100	> 100 µM (inactive)	> 100 µM (inactive)	> 100 µM (inactive)	> 100 µM (inactive)	> 100 µM (inactive)	> 100 µM (inactive)	> 100 µM (inactive)	> 100 µM (inactive)	> 100 µM (inactive)	> 100 µM (inactive)	> 100 µM (inactive)	> 100 µM (inactive)			
COC(=O)C(C(=O)c1ccccc1)C(C(=O)C(=O)Nc1ccc(OC)cc1OC)C(=O)C(=O)c1ccc(C)cc1 (centres undefined)	> 100 µM (inactive)	> 100 µM (inactive)		> 100 µM (inactive)	> 100	> 100 µM (inactive)	> 100 µM (inactive)	> 100 µM (inactive)	> 100 µM (inactive)	> 100 µM (inactive)	> 100 µM (inactive)	> 100 µM (inactive)	> 100 µM (inactive)	> 100 µM (inactive)	> 100 µM (inactive)	> 100 µM (inactive)	> 100 µM (inactive)			
O=C(O)CSc1nnc(-c2ccc(O)cc2)[nH]1	> 100 µM (inactive)	> 100 µM (inactive)	> 100 µM (inactive)	> 100 µM (inactive)	> 100	> 100 µM (inactive)	> 100 µM (inactive)	> 100 µM (inactive)	> 100 µM (inactive)	> 100 µM (inactive)	> 100 µM (inactive)	> 100 µM (inactive)	> 100 µM (inactive)		> 100 µM (inactive)	> 100 µM (inactive)	> 100 µM (inactive)			
NNC(=O)CCC(=O)NC1C2CC3CC(C2)CC1C3 (centres undefined)	> 100 µM (inactive)	> 100 µM (inactive)	> 100 µM (inactive)	> 100 µM (inactive)	> 100	> 100 µM (inactive)	> 100 µM (inactive)	> 100 µM (inactive)	> 100 µM (inactive)	> 100 µM (inactive)	> 100 µM (inactive)	> 100 µM (inactive)	> 100 µM (inactive)	> 100 µM (inactive)	> 100 µM (inactive)	> 100 µM (inactive)	> 100 µM (inactive)			
COc1ccc(OCC(=O)O)c2c1CCC(C(C)C)C2=O (centres undefined)	> 100 µM (inactive)	> 100 µM (inactive)	80.2 µM (inactive)	> 100 µM (inactive)				> 100 µM (inactive)	> 100 µM (inactive)	> 100 µM (inactive)	> 100 µM (inactive)	> 100 µM (inactive)	> 100 µM (inactive)	> 100 µM (inactive)	> 100 µM (inactive)	> 100 µM (inactive)	> 100 µM (inactive)			
Cc1c(C(=O)/C=C/c2ccc(Cl)cc2)[n+]([O-])c2ccccc2[n+]1[O-]		12.4 µM (inactive)	15 µM (inactive)	11.1 µM (inactive)	9.23	14.7 µM (inactive)	16.4 µM (inactive)	11.8 µM (inactive)	14.7 µM (inactive)	12.6 µM (inactive)	5.93 µM (inactive)	5.57 µM (inactive)	12.2 µM (inactive)	7.28 µM (inactive)	15.8 µM (inactive)	7.11 µM (inactive)	8.69 µM (inactive)			
O=c1c2cc(Cl)ccc2n2nnc3ccc(NCCNCCO)c1c32	2.09 µM (inactive)	0.719 µM (active)	2.02 µM (inactive)	1.53 µM (inactive)	0.718	2.74 µM (inactive)	2.11 µM (inactive)	1.37 µM (inactive)	0.682 µM (active)	2.31 µM (inactive)	0.419 µM (active)	0.56 µM (active)	0.689 µM (active)	0.583 µM (active)	1.78 µM (inactive)	0.962 µM (active)	0.466 µM (active)	5.15 µM (inactive)	1.1 µM (active)	0.665 µM (active)
CC(=O)OC(/C=C1/C=CC(=O)O1)COC(=O)c1ccccc1 (centres undefined) [ACETYLMELODORINOL]		> 31.2 µM (inactive)	> 31.2 µM (inactive)	> 31.2 µM (inactive)		> 31.2 µM (inactive)	> 31.2 µM (inactive)	> 31.2 µM (inactive)	> 31.2 µM (inactive)	> 31.2 µM (inactive)	> 31.2 µM (inactive)	> 31.2 µM (inactive)	> 31.2 µM (inactive)	> 31.2 µM (inactive)	> 31.2 µM (inactive)	> 31.2 µM (inactive)	> 31.2 µM (inactive)			

Reference: ChEMBL document CHEMBL1201862, “PubChem BioAssay data set” (2004)
